# ChEMBL document CHEMBL1128146, “Tricarbonyl 6 arene chromium (0) based antitumor agents” (Bioorg Med Chem Lett, 1995)
# Test system: HCT-116
# Assay: Inhibitory activity against HCT116 tumor cell line
# Assay type: functional, cell-based
# Conditions: Homo sapiens
row,SMILES,IC50 [nM]
1,CS(=O)(=O)OCCCN(CCCOS(C)(=O)=O)c1ccccc1,99
2,CC(C)(C)[Si](C)(C)OCCN(CCO[Si](C)(C)C(C)(C)C)c1ccccc1,1900
3,CS(=O)(=O)OCCN(CCOS(C)(=O)=O)c1ccccc1,25
